Laboratory results as given in patent US20230149507A1, “TREATMENT OF ALT CANCERS” (INSTITUTO DE MEDICINA MOLECULAR JOÃO LOBO ANTUNES, priority 2019, published 2023).

Assays:
[1] = tested on: U-2 OS cells; assay: TRF analysis of cells overexpressing FANCM variants; type: cell-based, human; details: overexpression
Excerpt: (a) Western immunoblotting of stable wild-type FANCM (FANCM+) or FANCM mutant overexpression in U-2 OS cells. […] (b) TRF analysis of U-2 OS cells overexpressing wild-type (FANCM+) or FANCM mutants. Gels were hybridized under native and denatured conditions with radiolabelled telomeric probes to detect the C-strand and G-strand. (c) Tukey boxplots of APB frequency (top panel) and mean APB telomere intensity (bottom panel) in U-2 OS cells overexpressing wild-type (FANCM+) or FANCM mutants. Out of 3 experiments, n=150 cells scored per variant, *p<0.05, **p<0.005, Mann-Whitney test.
(§1) Empty vector and wild-type FANCM (pCMV6-Myc-DDK) constructs were obtained from Origene Technologies. Wild type FANCM (SEQ ID NO: 2) and FANCM mutants (SEQ ID NOs: 19 to 28) were cloned into the pLenti-C-Myc-DDK-IRES-Neo backbone (Origene Technologies) by restriction enzyme subcloning of gene blocks synthesized by Integrated DNA Technologies (IDT). Lentivirus was produced by the Vector and Genome Engineering Facility (Children's Medical Research Institute). For stable overexpression, cells were transduced with lentivirus, allowed to recover for 24 h, and subject to G418 selection. Cells were maintained in G418 to ensure sustained overexpression.
Genomic DNA was digested with 4 U/μg of HinfI and RsaI overnight at 37° C. […]

[2] = tested on: U-2 OS cells; assay: Metaphase-TIFs in cells overexpressing FANCM variants; type: cell-based, human; details: stable overexpression
Excerpt: (a) Schematic of FANCM domain interactions, mutations or deletions. For clarity, domains have been color coded by functional role (bottom panel). (b) Quantitation of metaphase-TIFs in U-2 OS cells stably overexpressing wild-type (FANCM+) or FANCM mutants. Scatterplot bars represent the mean±SEM. Out of 3 experiments, n≥110 metaphases scored for each mutant, *p<0.05, **p<0.005, Mann-Whitney test. (c) Quantitation of fragile telomeres in U-2 OS cells stably overexpressing wild-type (FANCM+) or FANCM mutants. Scatterplot bars represent the mean±SEM. Out of 3 experiments, n>100 metaphases scored for each mutant, *p<0.05, **p<0.005, Mann-Whitney test. (d) Representative dot blots and quantitation of C-circle assays in U-2 OS cells stably overexpressing wild-type (FANCM+) or FANCM domain mutants. C-circles were normalized to the mean of vector control. Error bars represent mean±SEM from n=3 experiments, *p<0.05, **p<0.005, Student's t-test. (e) Single molecule analysis of telomeric extension events (top panel) and length of extension events (bottom panel) in U-2 OS cells stably overexpressing wild-type (FANCM+) or FANCM domain mutants. Error bars represent mean±SEM of n≥350 fibers out of 3 experiments, *p<0.05, **p<0.005, Student's t-test.
FIG. 23. Defects in ALT phenotype suppression are exacerbated by overexpression of a double-mutant (DM) FANCM, in which both the MM2 domain (FF>AA) and the translocase domain (K117R) of FANCM are mutated. (a) Representative dot blots and quantitation of C-circle assays in U-2 OS cells stably overexpressing wild-type (WT) or FANCM domain mutants (K117R, FF>AA; DM). C-circles were normalized to the mean of empty vector control (EV). Error bars represent mean±SEM from n=3 experiments, *p<0.05, **p<0.005, Student's t-test. (b) Quantitation of APB frequency in U-2 OS cells overexpressing wild-type (WT) or FANCM mutants. Scatterplot bars represent the mean±SEM. Out of three experiments, n=150 cells were scored for each mutant, **p<0.005, Mann-Whitney test. (c) Quantitation of metaphase-TIFs in U-2 OS cells stably overexpressing wild-type (WT) or FANCM mutants. Scatterplot bars represent the mean±SEM. Out of three experiments, n=120 metaphases scored for each mutant, *p<0.05, **p<0.005, Mann-Whitney test. All statistical comparisons are relative to EV control.
as §1
Indirect IF and telomere FISH were performed on both interphase nuclei and metaphase spreads. For interphase IF experiments, cells were grown on coverslips or LabTek chamber slides (Thermo Scientific). Slides were prepared as described in Sobinoff et al., 2017. Cells on coverslips were washed twice with PBS, permeabilized with KCM buffer (120 mM KCl, 20 mM NaCl, 10 mM Tris pH 7.5, 0.1% Triton), washed again with PBST and PBS, then fixed with ice-cold 4% formaldehyde PBS solution at room temperature for 10 min. […]

K117R: FANCM mutant (SEQ ID NO: 20) substituted at K117R, DEAH domain disrupted
low molecular weight ss C-rich telomeric DNA [1]: smear of low molecular weight ss C-rich telomeric DNA was observed
telomere dysfunction (metaphase-TIFs) [2]: failed to suppress the phenotypes

FF>AA: FANCM mutant (SEQ ID NO: 25), double substitution F1232A/F1236A within the MM2 domain
low molecular weight ss C-rich telomeric DNA [1]: smear of low molecular weight ss C-rich telomeric DNA was observed
telomere dysfunction (metaphase-TIFs) [2]: significantly increased
